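Exposure lasted 48 hours, with cells grown in 96-well plates and compounds tested at five concentrations. GI50 = concentration required for 50% inhibition of growth. At the TGI there is no net growth.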
Assays:
Experiment in all cases: inhibition of tumour cell growth, NCI panel, 48 h
SK-MEL-2 melanoma = system: SK-MEL-2 melanoma
SNB-19 CNS = system: SNB-19 CNS
SR leukemia = system: SR leukemia
K-562 leukemia = system: K-562 leukemia
CCRF-CEM leukemia = system: CCRF-CEM leukemia
OVCAR-4 ovarian = system: OVCAR-4 ovarian
MOLT-4 leukemia = system: MOLT-4 leukemia
SW-620 colon = system: SW-620 colon
HOP-92 NSCLC = system: HOP-92 NSCLC
A498 renal = system: A498 renal

SMILES | TGI (SK-MEL-2 melanoma) [µM] | TGI (SNB-19 CNS) [µM] | TGI (SR leukemia) [µM] | TGI (K-562 leukemia) [µM] | TGI (CCRF-CEM leukemia) [µM] | TGI (OVCAR-4 ovarian) [µM] | TGI (MOLT-4 leukemia) [µM] | TGI (SW-620 colon) [µM] | TGI (HOP-92 NSCLC) [µM] | TGI (A498 renal) [µM] | GI50 (SK-MEL-2 melanoma) [µM] | GI50 (HOP-92 NSCLC) [µM] | GI50 (SNB-19 CNS) [µM] | GI50 (SR leukemia) [µM] | GI50 (CCRF-CEM leukemia) [µM] | GI50 (OVCAR-4 ovarian) [µM] | GI50 (MOLT-4 leukemia) [µM] | GI50 (A498 renal) [µM] | GI50 (K-562 leukemia) [µM] | GI50 (SW-620 colon) [µM]
Cc1ccc2oc(=O)c(-c3ccccc3)nc2c1 | 43.8 | > 100 | > 100 | > 100 | > 100 | 75.2 | > 100 | > 100 |  |  |  |  |  |  |  |  |  |  |  | 
C=CC1=C(C)C2=NC1=CC1=NC(=CC3=C(C)C4=C(O)[C@H](C(=O)OC)C(=C5NC(=C2)[C@@H](C)[C@@H]5CCC(=O)O)C4=N3)C(CC)=C1C | > 22.2 | > 100 | 1.5 | 6.24 |  | 22 |  | 10.8 | 3.98 |  |  |  |  |  |  |  |  |  |  | 
O=C1[C@H]2ON(c3ccccc3)C(c3ccco3)[C@H]2C(=O)N1c1ccc(Cc2ccc(N3C(=O)[C@@H]4ON(c5ccccc5)C(c5ccco5)[C@@H]4C3=O)cc2)cc1 (stereo partly drawn) | > 100 |  |  | > 100 | > 100 | > 100 | > 100 | > 100 | > 100 | > 100 |  |  |  |  |  |  |  |  |  | 
Cc1ccc(NC(=O)/C(Cc2nc3ccc([N+](=O)[O-])cc3[nH]c2=O)=N\NC(=O)C[n+]2ccccc2)c(C)c1 | > 100 | > 100 |  |  | 61.1 | 46.6 | 88 | > 100 | > 100 |  |  |  |  |  |  |  |  |  |  | 
N#CC(C#N)=c1c2nsnc2c(=C(C#N)C#N)c2nsnc12 | 3.53 | 4.33 |  |  |  | 3.83 |  | 3.05 | 3.35 |  |  |  |  |  |  |  |  |  |  | 
CC(C)(C)c1ccc(OC2CCO2)cc1 (stereo not drawn) |  | > 100 |  | 39.1 | 65 | > 100 | 72.3 | 30.9 | 82 | > 100 |  |  |  |  |  |  |  |  |  | 
Clc1ccc2c(c1)N(c1ncnc3ccc(-c4cnc5[nH]ncc5c4)cc13)CC2 | > 100 | > 100 | > 100 |  | > 100 | > 100 | > 100 |  | > 100 |  | 7 | 0.169 | 1.46 | 0.722 | 0.547 | 0.747 | 0.465 |  |  | 
O=C1c2ccccc2-c2c1c1ccccc1c(=O)n2CCNCCn1c2c(c3ccccc3c1=O)C(=O)c1ccccc1-2 | > 25 | > 25 |  | 16.2 |  |  | 12.8 | > 25 |  | > 25 | > 25 |  | 0.333 |  |  |  | 4.84 | > 25 | 5.42 | > 25
C=C1C2Oc3ccccc3C1N(c1ccccc1)O2 (stereo not drawn) | > 100 | > 100 | > 100 | > 100 | 89.5 | 75.3 | > 100 | > 100 |  |  |  |  |  |  |  |  |  |  |  | 
COC(=O)c1ccc2c(c1)C(=O)c1c-2n(CCCN=[N+]=[N-])c(=O)c2cc([N+](=O)[O-])ccc12 | 82.5 | > 100 |  | > 100 | > 100 | > 100 | > 100 | > 100 | 53.3 | > 100 | 27 | 17.5 | 47.4 |  | 42.2 | > 100 | 30.2 | > 100 | 48 | > 100
C[C@]12C/C(=C/O)C(=O)C(O)=C1CC[C@@H]1C2CC[C@@]2(C)C1CC[C@@H]2O (stereo partly drawn) | 55.4 | 36.1 |  | 82.2 | 47.5 | 62.7 | 66.5 | > 100 | 46.4 | 65.1 |  |  |  |  |  |  |  |  |  | 
O=C1/C(=C/c2cccc([N+](=O)[O-])c2)Sc2scc(-c3ccc([N+](=O)[O-])cc3)[n+]21 | 70 | 46.1 |  |  |  | > 100 | > 100 | > 100 | 72.3 |  |  |  |  |  |  |  |  |  |  | 
CC1=NN(C(=O)c2ccncc2)C(=O)C1N=Nc1ccc(F)cc1 (stereo not drawn) | > 100 | > 100 |  | > 100 |  | > 100 |  | > 100 | > 100 | > 100 |  |  |  |  |  |  |  |  |  | 
COc1cc(CNc2nc3ccc(C(F)(F)F)cc3nc2-c2ccccc2)cc(OC)c1OC | > 100 | > 100 |  | > 100 | > 100 | > 100 | 56.8 | > 100 |  | > 100 |  |  |  |  |  |  |  |  |  | 
O=c1[nH]c2cc([N+](=O)[O-])ccc2nc1/C(=N\Nc1ccccc1)C(O)c1ccc2c(c1)OCO2 (stereo not drawn) | > 100 | > 100 | > 100 | > 100 | > 100 | > 100 | > 100 | > 100 | 42.7 |  |  |  |  |  |  |  |  |  |  | 
CC1(O)CCn2c(=O)c3cc4ccccc4cc3c(=O)n2C1O (stereo not drawn) | > 100 | > 100 | > 100 | > 100 | > 100 |  | > 100 | > 100 | > 100 |  |  |  |  |  |  |  |  |  |  | 
CC(=O)n1c(=O)c2cc3c(=O)n(-c4cccc(C#N)c4)c(=O)c3cc2c1=O | > 100 | > 100 |  | > 100 | > 100 | > 100 |  | > 100 | > 100 | > 100 |  |  |  |  |  |  |  |  |  | 
C/C1=C\CC[C@@](C)(O)[C@@H]2C[C@H](CC/C(C)=C/CC1)C1(CC1)C(=O)O2 | > 100 | > 100 | 76.9 | 46.6 | > 100 | > 100 | 38.2 | 73.1 |  |  | 41.2 |  | 61.9 | 28 | 76.1 | 26.3 | 15.5 |  | 13.6 | 27.1
Cn1c(=O)nc2n(-c3ccc(Cl)c(C(F)(F)F)c3)c3ccccc3nc-2c1=O | > 100 | 63.1 |  | > 100 | > 100 | 62.9 | > 100 | 62 | > 100 | > 100 |  |  |  |  |  |  |  |  |  | 
O=C1c2cccc3cccc(c23)C(=O)N1O | > 100 | > 100 |  | > 100 | > 100 | > 100 | > 100 | > 100 | 94.5 | > 100 |  |  |  |  |  |  |  |  |  | 
Cc1cccc(N(CC(=O)O)S(=O)(=O)c2ccccc2)c1 | > 100 | > 100 |  | > 100 | > 100 | > 100 | > 100 | > 100 | > 100 | > 100 |  |  |  |  |  |  |  |  |  | 

Source: PubChem BioAssay (NCI)
